For 16 compounds, IC50 and Ratio IC50 results are on record in ChEMBL document CHEMBL3400144, “Design and synthesis of novel 1,2-dithiolan-4-yl benzoate derivatives as PTP1B inhibitors” (Bioorg Med Chem Lett, 2015).

A value given as a limit tells only on which side of the number the result lay.

Test [1] concerns the target Tyrosine-protein phosphatase non-receptor type 6 (Homo sapiens, UniProt P29350). The experiment in a line: Inhibition of SHP1 (unknown origin).
In test [2] the target is T1, Tyrosine-protein phosphatase non-receptor type 2 (Homo sapiens, UniProt P17706).
T1 sequence (P17706 whole entry): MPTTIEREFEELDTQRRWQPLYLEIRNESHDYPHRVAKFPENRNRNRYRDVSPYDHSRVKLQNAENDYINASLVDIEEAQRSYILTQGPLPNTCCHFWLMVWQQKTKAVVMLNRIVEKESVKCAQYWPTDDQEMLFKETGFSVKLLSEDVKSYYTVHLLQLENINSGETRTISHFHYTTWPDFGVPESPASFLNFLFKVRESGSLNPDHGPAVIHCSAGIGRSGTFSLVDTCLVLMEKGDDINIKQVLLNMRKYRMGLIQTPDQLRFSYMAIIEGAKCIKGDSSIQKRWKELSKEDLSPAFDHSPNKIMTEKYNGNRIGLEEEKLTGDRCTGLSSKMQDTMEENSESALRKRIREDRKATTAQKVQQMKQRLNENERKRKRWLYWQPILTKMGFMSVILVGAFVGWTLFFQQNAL
Put plainly: Inhibition of TCPTP (unknown origin).

For test [3], the target named is T2, Tyrosine-protein phosphatase non-receptor type 11 (Homo sapiens, UniProt Q06124).
T2 sequence (Q06124 whole entry): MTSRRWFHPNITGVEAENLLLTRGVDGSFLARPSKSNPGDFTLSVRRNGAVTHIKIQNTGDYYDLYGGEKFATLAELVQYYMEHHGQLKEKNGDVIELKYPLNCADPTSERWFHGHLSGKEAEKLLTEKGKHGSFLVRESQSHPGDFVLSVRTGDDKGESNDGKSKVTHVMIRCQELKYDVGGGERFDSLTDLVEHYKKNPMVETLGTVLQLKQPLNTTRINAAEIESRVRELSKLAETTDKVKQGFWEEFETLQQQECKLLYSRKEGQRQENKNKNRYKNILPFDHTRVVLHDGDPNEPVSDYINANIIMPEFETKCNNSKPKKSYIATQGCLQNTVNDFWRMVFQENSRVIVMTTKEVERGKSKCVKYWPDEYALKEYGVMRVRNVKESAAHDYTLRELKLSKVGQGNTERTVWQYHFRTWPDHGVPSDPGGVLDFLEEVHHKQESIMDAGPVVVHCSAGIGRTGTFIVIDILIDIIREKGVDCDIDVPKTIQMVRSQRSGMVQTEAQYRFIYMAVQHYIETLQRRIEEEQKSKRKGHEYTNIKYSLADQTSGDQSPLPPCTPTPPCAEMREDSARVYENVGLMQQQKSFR
Put plainly: Inhibition of SHP2 (unknown origin).

Test [4] deals with T3, Tyrosine-protein phosphatase non-receptor type 1 (Homo sapiens, UniProt P18031).
T3 sequence (P18031 whole entry): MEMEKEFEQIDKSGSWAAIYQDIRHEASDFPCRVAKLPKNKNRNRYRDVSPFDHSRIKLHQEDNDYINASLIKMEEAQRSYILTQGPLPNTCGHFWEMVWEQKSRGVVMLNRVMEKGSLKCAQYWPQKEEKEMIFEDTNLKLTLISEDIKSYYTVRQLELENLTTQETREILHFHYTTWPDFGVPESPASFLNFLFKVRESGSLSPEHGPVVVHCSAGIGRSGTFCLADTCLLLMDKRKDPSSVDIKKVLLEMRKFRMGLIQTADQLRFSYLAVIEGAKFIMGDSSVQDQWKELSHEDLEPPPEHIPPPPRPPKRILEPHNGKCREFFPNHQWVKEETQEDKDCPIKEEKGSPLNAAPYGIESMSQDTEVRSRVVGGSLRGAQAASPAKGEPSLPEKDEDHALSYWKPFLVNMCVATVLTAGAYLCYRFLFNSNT
The experiment in a line: Inhibition of PTP1B (unknown origin).

For test [5], the target named is Receptor-type tyrosine-protein phosphatase F (Homo sapiens, UniProt P10586). The experiment in a line: Inhibition of LAR (unknown origin).
Receptor-type tyrosine-protein phosphatase F, sequence (P10586 whole entry): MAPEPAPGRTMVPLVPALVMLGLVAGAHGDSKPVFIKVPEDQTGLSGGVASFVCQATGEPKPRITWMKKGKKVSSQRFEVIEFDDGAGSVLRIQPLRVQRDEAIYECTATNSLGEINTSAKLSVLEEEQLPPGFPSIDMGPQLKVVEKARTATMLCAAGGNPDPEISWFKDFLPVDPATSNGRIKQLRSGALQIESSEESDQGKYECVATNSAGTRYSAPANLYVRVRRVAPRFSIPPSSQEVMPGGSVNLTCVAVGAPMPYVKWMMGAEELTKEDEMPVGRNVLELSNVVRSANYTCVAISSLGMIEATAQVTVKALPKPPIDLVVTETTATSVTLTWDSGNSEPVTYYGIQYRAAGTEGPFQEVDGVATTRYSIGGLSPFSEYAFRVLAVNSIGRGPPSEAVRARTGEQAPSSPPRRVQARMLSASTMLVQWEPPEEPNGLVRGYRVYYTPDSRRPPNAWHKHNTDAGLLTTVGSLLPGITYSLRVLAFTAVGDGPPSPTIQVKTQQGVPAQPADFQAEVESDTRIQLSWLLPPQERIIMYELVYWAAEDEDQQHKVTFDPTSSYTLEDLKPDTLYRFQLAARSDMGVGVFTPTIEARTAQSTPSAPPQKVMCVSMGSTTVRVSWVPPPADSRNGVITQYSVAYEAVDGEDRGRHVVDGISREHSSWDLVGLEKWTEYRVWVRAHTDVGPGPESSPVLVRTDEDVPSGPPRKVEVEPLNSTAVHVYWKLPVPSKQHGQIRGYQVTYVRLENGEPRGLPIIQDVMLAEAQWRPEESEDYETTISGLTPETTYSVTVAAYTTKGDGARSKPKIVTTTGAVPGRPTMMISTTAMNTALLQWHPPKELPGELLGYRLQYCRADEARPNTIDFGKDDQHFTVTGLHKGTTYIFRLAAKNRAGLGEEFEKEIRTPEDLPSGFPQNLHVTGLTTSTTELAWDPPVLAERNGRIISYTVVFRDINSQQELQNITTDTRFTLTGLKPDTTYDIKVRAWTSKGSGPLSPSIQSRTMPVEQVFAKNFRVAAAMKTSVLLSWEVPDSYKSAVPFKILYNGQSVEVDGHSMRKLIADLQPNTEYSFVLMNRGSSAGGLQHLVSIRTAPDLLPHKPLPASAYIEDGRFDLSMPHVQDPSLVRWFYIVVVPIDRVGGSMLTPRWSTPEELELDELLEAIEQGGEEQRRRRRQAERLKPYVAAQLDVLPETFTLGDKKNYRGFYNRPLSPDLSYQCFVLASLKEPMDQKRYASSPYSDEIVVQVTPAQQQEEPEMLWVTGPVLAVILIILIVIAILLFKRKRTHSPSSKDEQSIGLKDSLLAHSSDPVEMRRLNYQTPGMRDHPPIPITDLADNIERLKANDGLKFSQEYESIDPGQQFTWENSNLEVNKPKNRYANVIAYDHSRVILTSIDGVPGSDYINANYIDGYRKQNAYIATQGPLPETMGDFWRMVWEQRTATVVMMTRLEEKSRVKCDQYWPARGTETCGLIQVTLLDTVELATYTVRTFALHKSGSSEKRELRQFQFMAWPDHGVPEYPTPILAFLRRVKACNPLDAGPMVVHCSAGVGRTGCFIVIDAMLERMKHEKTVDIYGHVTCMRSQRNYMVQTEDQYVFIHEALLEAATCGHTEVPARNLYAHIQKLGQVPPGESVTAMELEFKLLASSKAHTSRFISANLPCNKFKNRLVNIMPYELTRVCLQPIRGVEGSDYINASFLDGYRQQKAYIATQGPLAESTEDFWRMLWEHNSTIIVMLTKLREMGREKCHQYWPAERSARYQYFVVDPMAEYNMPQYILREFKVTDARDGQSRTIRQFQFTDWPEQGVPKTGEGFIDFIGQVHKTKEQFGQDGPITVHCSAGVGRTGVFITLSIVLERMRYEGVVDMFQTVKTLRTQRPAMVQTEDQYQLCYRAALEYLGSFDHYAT
The species entered for test [6] is Homo sapiens. Put plainly: Selectivity ratio of IC50 for TCPTP (unknown origin) to IC50 for PTP1B (unknown origin).

Tyrosine-protein phosphatase non-receptor type 6, sequence (P29350 whole entry): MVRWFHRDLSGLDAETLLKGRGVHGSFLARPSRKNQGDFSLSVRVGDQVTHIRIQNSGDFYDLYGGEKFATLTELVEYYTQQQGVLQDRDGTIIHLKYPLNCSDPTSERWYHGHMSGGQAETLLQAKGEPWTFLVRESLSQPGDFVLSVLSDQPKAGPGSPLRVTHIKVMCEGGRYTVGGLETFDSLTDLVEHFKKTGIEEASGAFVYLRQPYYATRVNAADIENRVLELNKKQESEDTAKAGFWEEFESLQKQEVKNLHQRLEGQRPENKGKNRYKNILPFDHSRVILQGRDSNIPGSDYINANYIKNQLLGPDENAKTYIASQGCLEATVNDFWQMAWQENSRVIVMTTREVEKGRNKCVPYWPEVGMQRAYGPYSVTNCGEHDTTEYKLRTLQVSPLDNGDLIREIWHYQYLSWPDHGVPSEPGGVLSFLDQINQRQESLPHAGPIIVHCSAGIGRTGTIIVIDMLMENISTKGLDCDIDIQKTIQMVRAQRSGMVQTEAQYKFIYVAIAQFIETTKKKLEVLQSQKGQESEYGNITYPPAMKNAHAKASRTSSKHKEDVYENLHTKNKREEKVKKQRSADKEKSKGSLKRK

The IC50 is the concentration needed to halve the response being measured. As to `O=C(OC1CSSC1)c1ccc(OCCCCCCOC(=O)c2cc(Br)ccc2Br)cc1`, the IC50 entry in test [1] was “Not Active”; in test [2], 30.8 µM; in test [3] it was “Not Active”; in test [4] (read-out: IC50) it was 8.85 µM; in test [5] it was “Not Active”.

Take `O=C(OC1CSSC1)c1ccc(C#CCCCCOC(=O)c2ccccc2[N+](=O)[O-])cc1`: the IC50 was 9.25 µM in test [1] (read-out: IC50); 7.83 µM in test [2]; 11.5 µM in test [3] (read-out: IC50); 9.12 µM in test [4] (read-out: IC50); “Not Active” in test [5].

Regarding `O=C(OC1CSSC1)c1ccc(C#CCCCCOC(=O)c2ccccc2F)cc1`, the IC50 was 8.67 µM in test [1] (read-out: IC50); 6.48 µM in test [2]; 10.5 µM in test [3] (read-out: IC50); 4.43 µM in test [4] (read-out: IC50); “Not Active” in test [5].

For the compound `O=C(OCCCCC#Cc1ccc(C(=O)OC2CSSC2)cc1)c1ccc([N+](=O)[O-])cc1`, the IC50 was 24.9 µM in test [1] (read-out: IC50); 9.46 µM in test [2]; 24.6 µM in test [3] (read-out: IC50); 10.1 µM in test [4] (read-out: IC50); “Not Active” in test [5].

`O=C(OC1CSSC1)c1ccc(CCCCCCOC(=O)c2cc(Br)ccc2Br)cc1`: the IC50 is 11.1 µM in test [1] (read-out: IC50); 17.4 µM in test [2]; 9.69 µM in test [3] (read-out: IC50); 2.68 µM in test [4] (read-out: IC50); “Not Active” in test [5]. Further, in test [6], the Ratio IC50 is over 6.

As for `O=C(OC1CSSC1)c1ccc(OCCCOC(=O)c2cc(Br)ccc2Br)cc1`, the IC50 in test [1] (read-out: IC50) is 32.2 µM; in test [2], 27.6 µM; in test [3] (read-out: IC50) it was 10.9 µM; in test [4] it was “Not Active”; in test [5], “Not Active”.

On to `COc1cccc(C(=O)OCCCCC#Cc2ccc(C(=O)OC3CSSC3)cc2)c1`, for which the IC50 in test [1] (read-out: IC50) is 38.4 µM; in test [2] it was 26.3 µM; in test [3] (read-out: IC50), 34.6 µM; in test [4] (read-out: IC50), 26.3 µM; in test [5] it was “Not Active”.

For the compound `O=C(OCCCCC#Cc1ccc(C(=O)OC2CSSC2)cc1)c1ccc(F)cc1`, the IC50 in test [1] (read-out: IC50) is 9.21 µM; in test [2] it was 4.36 µM; in test [3] (read-out: IC50) it was 9.41 µM; in test [4] (read-out: IC50), 4.68 µM; in test [5], “Not Active”.

Consider `COc1ccccc1C(=O)OCCCCC#Cc1ccc(C(=O)OC2CSSC2)cc1`, for which the IC50 was 19.3 µM in test [1] (read-out: IC50); 23.2 µM in test [2]; 18.3 µM in test [3] (read-out: IC50); 23.5 µM in test [4] (read-out: IC50); “Not Active” in test [5].

With `O=C(OCCCCC#Cc1ccc(C(=O)OC2CSSC2)cc1)c1cccc([N+](=O)[O-])c1`, the IC50 in test [1] (read-out: IC50) was 23.6 µM; in test [2], 12.9 µM; in test [3] (read-out: IC50) it was 22.3 µM; in test [4] (read-out: IC50) it was 9.7 µM; in test [5], “Not Active”.

Consider `COc1ccc(C(=O)OCCCCC#Cc2ccc(C(=O)OC3CSSC3)cc2)cc1`, for which the IC50 in test [1] (read-out: IC50) was 5.13 µM; in test [2] it was 4.58 µM; in test [3] (read-out: IC50), 6.64 µM; in test [4] (read-out: IC50), 6.55 µM; in test [5], “Not Active”.

Consider `O=C(OC1CSSC1)c1ccc(OCCOC(=O)c2cc(Br)ccc2Br)cc1`, for which the IC50 entry in test [1] was “Not Active”; in test [2] it was 35 µM; in test [3], “Not Active”; in test [4] (read-out: IC50), 7.26 µM; in test [5], “Not Active”.

For `O=C(OCCCCC#Cc1ccc(C(=O)OC2CSSC2)cc1)c1cccc(F)c1`, the IC50 is 10 µM in test [1] (read-out: IC50); 9.21 µM in test [2]; 8.91 µM in test [3] (read-out: IC50); 5.18 µM in test [4] (read-out: IC50); “Not Active” in test [5].

Regarding `O=C(OC1CSSC1)c1ccc(C#CCCCCOC(=O)c2cc(Br)ccc2Br)cc1`, the IC50 entry in test [1] was “Not Active”; in test [2], 1.88 µM; in test [3] (read-out: IC50) it was 13.2 µM; in test [4] (read-out: IC50), 0.59 µM; in test [5], “Not Active”. Also, in test [6], the Ratio IC50 is 3.

`COc1ccc(C(=O)OCCCCC#Cc2ccc(C(=O)OC3CSSC3)cc2)c(OC)c1`: the IC50 result in test [1] was “Not Active”; in test [2], 20 µM; in test [3] it was “Not Active”; in test [4] (read-out: IC50), 4.27 µM; in test [5], “Not Active”. The Ratio IC50 in test [6] was determined as 5.

`O=C(OC1CSSC1)c1ccc(C#CCCOC(=O)c2cc(Br)ccc2Br)cc1`: the IC50 is 15.7 µM in test [1] (read-out: IC50); 26.7 µM in test [2]; 8.25 µM in test [3] (read-out: IC50); 2.73 µM in test [4] (read-out: IC50); “Not Active” in test [5]. Further, the Ratio IC50 in test [6] is 10.
